Where a SMILES comes first, the peptide text is derived from it. Bridges are numbered along the chain shown (N, C = ends). [ ]: non-standard residue; d: D form. 2Nal = N[C@@H](Cc1ccc2ccccc2c1)C(=O)O; NMeF = CN[C@@H](Cc1ccccc1)C(=O)O; dTic = O=C(O)[C@H]1Cc2ccccc2CN1; dThz = O=C(O)[C@H]1CSCN1

This test concerns the target T1, P-selectin (Homo sapiens, UniProt P16109).
T1 construct: P-selectin is isolated from human platelet lysates; from tissue; host or cells: human platelets (outdated platelet packs from a blood bank)
T1 sequence (P16109 42-830): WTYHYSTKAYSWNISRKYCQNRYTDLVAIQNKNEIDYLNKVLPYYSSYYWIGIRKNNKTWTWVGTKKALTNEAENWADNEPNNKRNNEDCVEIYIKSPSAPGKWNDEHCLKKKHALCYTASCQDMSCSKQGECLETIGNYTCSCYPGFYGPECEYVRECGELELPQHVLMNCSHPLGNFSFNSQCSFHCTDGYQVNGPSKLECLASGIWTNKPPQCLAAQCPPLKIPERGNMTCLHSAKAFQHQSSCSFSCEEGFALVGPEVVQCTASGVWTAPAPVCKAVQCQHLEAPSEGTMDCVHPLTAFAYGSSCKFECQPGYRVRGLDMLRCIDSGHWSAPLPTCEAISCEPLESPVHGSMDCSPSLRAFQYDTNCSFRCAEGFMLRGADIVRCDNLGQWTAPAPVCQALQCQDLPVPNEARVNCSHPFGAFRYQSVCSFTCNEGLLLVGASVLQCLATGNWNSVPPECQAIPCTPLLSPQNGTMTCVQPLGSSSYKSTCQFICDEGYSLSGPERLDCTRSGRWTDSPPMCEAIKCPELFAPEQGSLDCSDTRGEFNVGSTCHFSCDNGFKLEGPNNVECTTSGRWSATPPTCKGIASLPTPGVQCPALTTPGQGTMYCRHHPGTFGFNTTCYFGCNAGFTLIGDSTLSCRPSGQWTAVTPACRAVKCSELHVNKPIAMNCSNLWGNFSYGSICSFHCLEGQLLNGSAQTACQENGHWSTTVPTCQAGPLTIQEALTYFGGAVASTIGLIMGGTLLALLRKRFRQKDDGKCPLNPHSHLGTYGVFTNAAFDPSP
Description: Inhibition of human neutrophil adhesion to purified P-selectin immobilized on plastic wells. Format: cell-based. The settings on record: inhibiting the binding of human neutrophils to P-selectin. The source says:
Peptides can be screened for their ability to inhibit adhesion to cells, for example, neutrophil adhesion to purified P-selectin immobilized on plastic wells, using the assay described by Geng, et al., Nature 343, 757-760 (1990). Human neutrophils are isolated from heparinized whole blood by density gradient centrifugation on Mono-Poly resolving media, Flow Laboratories. Neutrophil suspensions are greater than 98% pure and greater than 95% viable by trypan blue exclusion. For adhesion assays, neutrophils are suspended at a concentration of 2×10^6 cells/mL in Hanks' balanced salt solution containing 1.26 mM Ca^2+ and 0.81 mM Mg^2+ (HBSS, Gibco) with […] human serum albumin (HBSS/HSA). Adhesion assays are conducted in triplicate in 96-well microliter plates, Corning, incubated at 4° C. overnight with 50 microliters of various protein solutions. P-selectin is isolated from human platelet lysates by immunoaffinity chromatography on antibody S12-Sepharose™ and ion-exchange chromatography on a Mono-Q™ column (FLPC, Pharmacia Fine Chemicals), as follows. Outdated human platelet packs (100 units) obtained from a blood bank and stored at 4° C. are pooled, adjusted to 5 mM EDTA at pH 7.5, centrifuged at 4,000 rpm for 30 minutes in 1 liter bottles, then washed three times with 1 liter of 0.1M NaCl, 20 mM Tris pH 7.5 (TBS), 5 mM EDTA, 5 mM benzamidine. The pellets are then resuspended in a minimum amount of wash buffer and made 1 mM in DIFP, then frozen in 50 mL screwtop tubes at -80° C. The frozen platelets are thawed and resuspended in 50 mL TBS, 5 mM benzamidine, 5 mM EDTA pH 7.5, […]. The suspension is frozen and thawed two times in a dry ice-acetone bath using a 600 mL lyophilizing flask, then homogenized in a glass/teflon mortar and pestle and made 1 mM in DIFP. The NaCl concentration is adjusted to 0.5M with a stock solution of 4M NaCl. After stirring the suspension at 4° C., it is centrifuged in polycarbonate tubes at 33,000 rpm for 60 minutes at 4° C. The supernatant (0.5M NaCl wash) is removed and saved; this supernatant contains the soluble form of P-selectin. Care is taken not to remove the top part of the pellet with the supernatant. The pellets are then homogenized in extraction buffer (TBS, 5 mM benzamidine, 5 mM EDTA, pH 7.5, 100 μM leupeptin, 2% Triton X-100). After centrifugation at 19,500 rpm for 25 minutes at 4° C., the supernatant is removed. The extraction procedure is repeated with the pellet and the supernatant is combined with the first supernatant. The combined extracts, which contain the membrane form of P-selectin, are adjusted to 0.5M NaCl. The soluble fraction (0.5M NaCl wash) and the membrane extract (also adjusted to 0.5M NaCl) are absorbed with separate pools of the monoclonal antibody S12 (directed to P-selectin) previously couple […]) at 5 mg/mL for 2 hours at 4° C. After letting the resins settle, the supernatants are removed. The S12 Affigel containing bound GMP-140 is then loaded into a column and washed overnight at 4° C. with 400 mL of 0.5M NaCl, 20 mM Tris pH 7.5, 0.01% Lubrol PX. Bound P-selectin is eluted from the S12 Affigel with 100 mL of 80% ethylene glycol, 1 mM MES pH 6.0, 0.01% Lubrol PX. Peak fractions with absorbance at 280 nm are pooled. Eluates are dialyzed against TBS with 0.05% Lubrol, then applied to a Mono Q column (FPLC from Pharmacia). The concentrated protein is step eluted with 2M NaCl, 20 mM Tris pH 7.5 (plus 0.05% Lubrol PX for the membrane fraction). Peak fractions are dialyzed into TBS pH 7.5 (plus 0.05% Lubrol PX for the membrane fraction). P-selectin is plated at 5 micrograms/mL and the control proteins: human serum albumin (Alb), platelet glycoprotein IIb/IIIa (IIb), von Willebrand factor (vWF), fibrinogen (FIB), thrombomodulin (TM), gelatin (GEL) or human serum (HS), are added at 50 micrograms/mL. […]
One may read the IC50 as the midpoint of a concentration-inhibition curve. In turn, `CC(C)[C@@H](NC(=O)[C@@H](Cc1c[nH]c2ccccc12)NC(=O)[C@H](NC(=O)[C@@H](CCCCN)NC(=O)[C@H]1CSSC[C@@H](NC(=O)[C@@H](CCCCN)NC(=O)[C@H](N)CCCNC(=N)N)C(=O)NCC(=O)N[C@@H](Cc2ccccc2)C(=O)N1)[C@H](C)O)C(N)=O` [(56)] (H-[dR][dK][dC]GF[dC][dK][dT][dW][dV]-NH2; disulfide 3-6) came in with an IC50 of 727 µM. For `CC(C)[C@@H](NC(=O)[C@@H](Cc1c[nH]c2ccccc12)NC(=O)[C@H](NC(=O)[C@@H](Cc1c[nH]c2ccccc12)NC(=O)[C@H]1CSSC[C@@H](NC(=O)[C@@H](CCCCN)NC(=O)[C@H](N)CCCNC(=N)N)C(=O)NCC(=O)N2CSC[C@@H]2C(=O)N1)[C@H](C)O)C(N)=O` [(58)] (H-[dR][dK][dC]G[dThz][dC][dW][dT][dW][dV]-NH2; disulfide 3-6) the value was 186 µM. The value for `CC(C)[C@@H](NC(=O)[C@@H](Cc1c[nH]c2ccccc12)NC(=O)[C@H](NC(=O)[C@@H](Cc1c[nH]c2ccccc12)NC(=O)[C@H]1CSSC[C@@H](NC(=O)[C@@H](CCCCN)NC(=O)[C@H](N)CCCNC(=N)N)C(=O)NCC(=O)N2Cc3ccccc3C[C@@H]2C(=O)N1)[C@H](C)O)C(N)=O` [(59)] (H-[dR][dK][dC]G[dTic][dC][dW][dT][dW][dV]-NH2; disulfide 3-6) was 18.3 µM; that for `CC(C)[C@@H](NC(=O)[C@@H](Cc1c[nH]c2ccccc12)NC(=O)[C@H](NC(=O)[C@@H](Cc1c[nH]c2ccccc12)NC(=O)[C@H]1CSSC[C@@H](NC(=O)[C@@H](CCCCN)NC(=O)[C@H](N)CCCNC(=N)N)C(=O)NCC(=O)N[C@@H](Cc2c[nH]c3ccccc23)C(=O)N1)[C@H](C)O)C(N)=O` [(60)] (H-[dR][dK][dC]GW[dC][dW][dT][dW][dV]-NH2; disulfide 3-6) was 1.4 µM. The value for `CC(C)[C@@H](NC(=O)[C@@H](Cc1c[nH]cn1)NC(=O)[C@H](NC(=O)[C@@H](Cc1c[nH]c2ccccc12)NC(=O)[C@H]1CSSC[C@@H](NC(=O)[C@@H](CCCCN)NC(=O)[C@H](N)CCCNC(=N)N)C(=O)NCC(=O)N[C@@H](Cc2ccccc2)C(=O)N1)[C@H](C)O)C(N)=O` [(61)] (H-[dR][dK][dC]GF[dC][dW][dT][dH][dV]-NH2; disulfide 3-6) was 65.4 µM; that for `CC(C)[C@@H](NC(=O)[C@@H](CCCCN)NC(=O)[C@H](NC(=O)[C@@H](Cc1c[nH]c2ccccc12)NC(=O)[C@H]1CSSC[C@@H](NC(=O)[C@@H](CCCCN)NC(=O)[C@H](N)CCCNC(=N)N)C(=O)NCC(=O)N[C@@H](Cc2ccccc2)C(=O)N1)[C@H](C)O)C(N)=O` [(62)] (H-[dR][dK][dC]GF[dC][dW][dT][dK][dV]-NH2; disulfide 3-6) was 533 µM. The molecule `CC(C)[C@@H](NC(=O)[C@@H](Cc1ccc(O)cc1)NC(=O)[C@H](NC(=O)[C@@H](Cc1c[nH]c2ccccc12)NC(=O)[C@H]1CSSC[C@@H](NC(=O)[C@@H](CCCCN)NC(=O)[C@H](N)CCCNC(=N)N)C(=O)NCC(=O)N[C@@H](Cc2ccccc2)C(=O)N1)[C@H](C)O)C(N)=O` [(63)] (H-[dR][dK][dC]GF[dC][dW][dT][dY][dV]-NH2; disulfide 3-6) came in with an IC50 of 19.3 µM. For `CC(C)[C@@H](NC(=O)[C@@H](Cc1c[nH]c2ccccc12)NC(=O)[C@H](NC(=O)[C@@H](Cc1ccc(O)cc1)NC(=O)[C@H]1CSSC[C@@H](NC(=O)[C@@H](CCCCN)NC(=O)[C@H](N)CCCNC(=N)N)C(=O)NCC(=O)N[C@@H](Cc2ccccc2)C(=O)N1)[C@H](C)O)C(N)=O` [(64)] (H-[dR][dK][dC]GF[dC][dY][dT][dW][dV]-NH2; disulfide 3-6) the value was 46.2 µM.

In turn, `CC[C@@H](C)[C@H]1NC(=O)[C@H]([C@@H](C)CC)NC(=O)[C@H](NC(=O)[C@@H](CCCCN)NC(=O)[C@H](N)CCCNC(=N)N)CSSC[C@H](C(=O)N[C@H](Cc2c[nH]c3ccccc23)C(=O)N[C@@H](C(=O)N[C@H](Cc2c[nH]c3ccccc23)C(=O)N[C@@H](C(N)=O)C(C)C)[C@H](C)O)NC1=O` [(67)] (H-[dR][dK][dC]I[dI][dC][dW][dT][dW][dV]-NH2; disulfide 3-6) displayed an IC50 of 11.1 µM. For `CC(C)[C@@H](NC(=O)[C@@H](Cc1c[nH]c2ccccc12)NC(=O)[C@H](NC(=O)[C@@H](Cc1c[nH]c2ccccc12)NC(=O)[C@H]1CSSC[C@@H](NC(=O)[C@@H](CCCCN)NC(=O)[C@H](N)CCCNC(=N)N)C(=O)NCC(=O)N(C)[C@@H](Cc2ccccc2)C(=O)N1)[C@H](C)O)C(N)=O` [(72)] (H-[dR][dK][dC]G[NMeF][dC][dW][dT][dW][dV]-NH2; disulfide 3-6) the value was 37.7 µM; for `CC(C)[C@@H](NC(=O)[C@@H](Cc1c[nH]c2ccccc12)NC(=O)[C@H](NC(=O)[C@@H](Cc1c[nH]c2ccccc12)NC(=O)[C@H]1CSSC[C@@H](NC(=O)[C@@H](CCCCN)NC(=O)[C@H](N)CCCNC(=N)N)C(=O)NCC(=O)N[C@@H](Cc2ccc3ccccc3c2)C(=O)N1)[C@H](C)O)C(N)=O` [(73)] (H-[dR][dK][dC]G[2Nal][dC][dW][dT][dW][dV]-NH2; disulfide 3-6), 3.2 µM.

In turn, `CC(C)[C@H](NC(=O)[C@H]1CSSC[C@@H](NC(=O)[C@@H](CCCCN)NC(=O)[C@H](N)CCCNC(=N)N)C(=O)NCC(=O)N[C@@H](Cc2ccccc2)C(=O)N1)C(=O)N[C@H](Cc1c[nH]c2ccccc12)C(=O)N[C@@H](C(=O)N[C@H](Cc1c[nH]c2ccccc12)C(N)=O)[C@H](C)O` [(75)] (H-[dR][dK][dC]GF[dC]V[dW][dT][dW]-NH2; disulfide 3-6) showed an IC50 of 6 µM.

The molecule `CC(C)[C@@H](NC(=O)[C@H]1CCCN1C(=O)[C@H](NC(=O)[C@@H](Cc1c[nH]c2ccccc12)NC(=O)[C@H]1CSSC[C@@H](NC(=O)[C@@H](CCCCN)NC(=O)[C@H](N)CCCNC(=N)N)C(=O)NCC(=O)N[C@@H](Cc2ccccc2)C(=O)N1)[C@H](C)O)C(N)=O` [(77)] (H-[dR][dK][dC]GF[dC][dW][dT][dP][dV]-NH2; disulfide 3-6) yielded an IC50 of 2270 µM. This IC50 lies about 380-fold higher than the previous one. For `CC(C)[C@@H](NC(=O)[C@@H](Cc1ccc2ccccc2c1)NC(=O)[C@H](NC(=O)[C@@H](Cc1c[nH]c2ccccc12)NC(=O)[C@H]1CSC[C@@H](NC(=O)[C@@H](CCCCN)NC(=O)[C@H](N)CCCNC(=N)N)C(=O)NCC(=O)N[C@@H](Cc2ccccc2)C(=O)N1)[C@H](C)O)C(N)=O` [(78)], the IC50 was 50.7 µM.

(Values after US5753617A, “Peptide inhibitors of cellular adhesion” (Centocor, Inc., priority 1995, dated 1998).)
